Experimental data taken from PMC9025941, “Influence of the Type of Amino Acid on the Permeability and Properties of Ibuprofenates of Isopropyl Amino Acid Esters” (International Journal of Molecular Sciences, 2022).
“And” between values parts separate entries of the source, which are not always exact repeats. Equal entries are not always repeated. Marks after values point to notes of the source that are not given here.

Test: n-octanol-water partition coefficient, shake flask method
Conditions: shake flask, 25 °C

SMILES	Log P (n-octanol-water partition coefficient)
CC(C)Cc1ccc(C(C)C(=O)O)cc1.CC(C)OC(=O)[C@@H](N)Cc1ccccc1 [[L-PheOiPr][IBU], L-phenylalanine isopropyl ester ibuprofenate]	2.207 ± 0.026
CC(C)Cc1ccc(C(C)C(=O)O)cc1.CC(C)OC(=O)[C@@H](N)CO [[L-SerOiPr][IBU], L-serine isopropyl ester ibuprofenate]	0.775 ± 0.008
CC(C)Cc1ccc(C(C)C(=O)O)cc1.CC(C)OC(=O)[C@@H](N)[C@@H](C)O [[L-ThrOiPr][IBU], L-threonine isopropyl ester ibuprofenate]	0.998 ± 0.001

Test: not given
Conditions: 24 h penetration, n = 3

SMILES	Accumulation in the skin [µg IBU g^−1]
CC(C)Cc1ccc(C(C)C(=O)O)cc1.CC(C)Cc1ccc(C(C)C(=O)O)cc1.CC(C)OC(=O)[C@@H](N)CCCCN [[L-LysOiPr][IBU]2, L-lysine isopropyl ester bis(ibuprofenate)]	392.593 ± 111.434
CC(C)Cc1ccc(C(C)C(=O)O)cc1.CC(C)OC(=O)[C@@H](N)CO [[L-SerOiPr][IBU], L-serine isopropyl ester ibuprofenate]	407.652 ± 74.170
CC(C)Cc1ccc(C(C)C(=O)O)cc1.CC(C)OC(=O)[C@@H](N)[C@@H](C)O [[L-ThrOiPr][IBU], L-threonine isopropyl ester ibuprofenate]	621.866 ± 112.163

Test: Solubility in organic solvents by modified Vogel's method
Conditions: 25 °C

SMILES	Solubility in DMSO	Solubility in chloroform	Solubility in dichloromethane	Solubility in diethyl ether	Solubility in ethanol	Solubility in ethyl acetate	Solubility in n-hexane	Solubility in toluene
CC(C)Cc1ccc(C(C)C(=O)O)cc1.CC(C)Cc1ccc(C(C)C(=O)O)cc1.CC(C)OC(=O)[C@@H](N)CCCCN [[L-LysOiPr][IBU]2, L-lysine isopropyl ester bis(ibuprofenate)]	+ (soluble >100 mg cm^−3)	− (insoluble <33 mg cm^−3)	− (insoluble <33 mg cm^−3)	− (insoluble <33 mg cm^−3)	+ (soluble >100 mg cm^−3)	− (insoluble <33 mg cm^−3)	− (insoluble <33 mg cm^−3)	− (insoluble <33 mg cm^−3)
CC(C)Cc1ccc(C(C)C(=O)O)cc1.CC(C)OC(=O)[C@@H](N)Cc1ccccc1 [[L-PheOiPr][IBU], L-phenylalanine isopropyl ester ibuprofenate]	+ (soluble >100 mg cm^−3)	+ (soluble >100 mg cm^−3)	+ (soluble >100 mg cm^−3)	+/− (partially soluble 33–100 mg cm^−3)	+ (soluble >100 mg cm^−3)	+ (soluble >100 mg cm^−3)	− (insoluble <33 mg cm^−3)	+ (soluble >100 mg cm^−3)
CC(C)Cc1ccc(C(C)C(=O)O)cc1.CC(C)OC(=O)[C@@H](N)CO [[L-SerOiPr][IBU], L-serine isopropyl ester ibuprofenate]						+/− (partially soluble 33–100 mg cm^−3)		− (insoluble <33 mg cm^−3)

Test: Thermal stability (TG/DTG): decomposition onset and maximum mass-loss rate temperature
Conditions: not given
Procedure: In Figure 5, the thermal stability of ibuprofen and amino acid isopropyl ester ibuprofenates was determined and compared. All TG, DTG, and c-DTA curves are in the Supplementary Materials (Figures S87–S100). The decomposition onset temperature (Tonset) and the temperature of the maximum rate of mass loss (Tmax) were determined.

SMILES	Tonset, the onset temperature of the thermal degradation [°C]
CC(C)Cc1ccc(C(C)C(=O)O)cc1.CC(C)OC(=O)[C@@H](N)Cc1ccccc1 [[L-PheOiPr][IBU], L-phenylalanine isopropyl ester ibuprofenate]	175.8
CC(C)Cc1ccc(C(C)C(=O)O)cc1.CC(C)OC(=O)[C@@H](N)[C@@H](C)O [[L-ThrOiPr][IBU], L-threonine isopropyl ester ibuprofenate]	129.6

Same assay, conditions: TG

SMILES	Tonset, the onset temperature of the thermal degradation [°C]
CC(C)Cc1ccc(C(C)C(=O)O)cc1.CC(C)Cc1ccc(C(C)C(=O)O)cc1.CC(C)OC(=O)[C@@H](N)CCCCN [[L-LysOiPr][IBU]2, L-lysine isopropyl ester bis(ibuprofenate)]	183.7
CC(C)Cc1ccc(C(C)C(=O)O)cc1.CC(C)OC(=O)[C@@H](N)CO [[L-SerOiPr][IBU], L-serine isopropyl ester ibuprofenate]	139.2

Test: In vitro skin permeation, Franz diffusion cells
Conditions: not given

SMILES	KP, times higher than for ibuprofen [times]
CC(C)Cc1ccc(C(C)C(=O)O)cc1.CC(C)OC(=O)[C@@H](N)Cc1ccccc1 [[L-PheOiPr][IBU], L-phenylalanine isopropyl ester ibuprofenate]	6.839

Same assay, conditions: 24 h, n = 3

SMILES	Q%24 h, the percentage of the applied dose permeated after 24 h [%]
CC(C)Cc1ccc(C(C)C(=O)O)cc1.CC(C)Cc1ccc(C(C)C(=O)O)cc1.CC(C)OC(=O)[C@@H](N)CCCCN [[L-LysOiPr][IBU]2, L-lysine isopropyl ester bis(ibuprofenate)]	10.624 ± 0.474
CC(C)Cc1ccc(C(C)C(=O)O)cc1.CC(C)OC(=O)[C@@H](N)Cc1ccccc1 [[L-PheOiPr][IBU], L-phenylalanine isopropyl ester ibuprofenate]	35.912 ± 0.539
CC(C)Cc1ccc(C(C)C(=O)O)cc1.CC(C)OC(=O)[C@@H](N)CO [[L-SerOiPr][IBU], L-serine isopropyl ester ibuprofenate]	11.035 ± 0.500
CC(C)Cc1ccc(C(C)C(=O)O)cc1.CC(C)OC(=O)[C@@H](N)[C@@H](C)O [[L-ThrOiPr][IBU], L-threonine isopropyl ester ibuprofenate]	11.294 ± 0.505

Same assay, conditions: 24 h, saturated solution in PBS pH 7.4, mass of compound, n = 3

SMILES	Cumulative Permeation Mass
CC(C)Cc1ccc(C(C)C(=O)O)cc1.CC(C)Cc1ccc(C(C)C(=O)O)cc1.CC(C)OC(=O)[C@@H](N)CCCCN [[L-LysOiPr][IBU]2, L-lysine isopropyl ester bis(ibuprofenate)]	640.825 ± 28.577 ^b µg·cm^−2
CC(C)Cc1ccc(C(C)C(=O)O)cc1.CC(C)OC(=O)[C@@H](N)Cc1ccccc1 [[L-PheOiPr][IBU], L-phenylalanine isopropyl ester ibuprofenate]	711.866 ± 5.956 ^b µg·cm^−2
CC(C)Cc1ccc(C(C)C(=O)O)cc1.CC(C)OC(=O)[C@@H](N)[C@@H](C)O [[L-ThrOiPr][IBU], L-threonine isopropyl ester ibuprofenate]	714.248 ± 38.838 ^b µg·cm^−2

Same assay, conditions: 24 h, saturated solution in PBS pH 7.4, mass of ibuprofen, n = 3

SMILES	Cumulative Permeation Mass
CC(C)Cc1ccc(C(C)C(=O)O)cc1.CC(C)Cc1ccc(C(C)C(=O)O)cc1.CC(C)OC(=O)[C@@H](N)CCCCN [[L-LysOiPr][IBU]2, L-lysine isopropyl ester bis(ibuprofenate)]	220.016 ± 9.811 ^b µg IBU·cm^−2
CC(C)Cc1ccc(C(C)C(=O)O)cc1.CC(C)OC(=O)[C@@H](N)Cc1ccccc1 [[L-PheOiPr][IBU], L-phenylalanine isopropyl ester ibuprofenate]	355.088 ± 5.482 ^b µg IBU·cm^−2
CC(C)Cc1ccc(C(C)C(=O)O)cc1.CC(C)OC(=O)[C@@H](N)[C@@H](C)O [[L-ThrOiPr][IBU], L-threonine isopropyl ester ibuprofenate]	400.942 ± 17.921 ^b µg IBU·cm^−2

Same assay, conditions: n = 3

SMILES	LT, lag time [h]
CC(C)Cc1ccc(C(C)C(=O)O)cc1.CC(C)Cc1ccc(C(C)C(=O)O)cc1.CC(C)OC(=O)[C@@H](N)CCCCN [[L-LysOiPr][IBU]2, L-lysine isopropyl ester bis(ibuprofenate)]	1.333 ± 0.258
CC(C)Cc1ccc(C(C)C(=O)O)cc1.CC(C)OC(=O)[C@@H](N)Cc1ccccc1 [[L-PheOiPr][IBU], L-phenylalanine isopropyl ester ibuprofenate]	1.368 ± 0.091
CC(C)Cc1ccc(C(C)C(=O)O)cc1.CC(C)OC(=O)[C@@H](N)CO [[L-SerOiPr][IBU], L-serine isopropyl ester ibuprofenate]	1.160 ± 0.081
CC(C)Cc1ccc(C(C)C(=O)O)cc1.CC(C)OC(=O)[C@@H](N)[C@@H](C)O [[L-ThrOiPr][IBU], L-threonine isopropyl ester ibuprofenate]	1.339 ± 0.177

Same assay, conditions: relative to IBU

SMILES	EF, enhancement factor
CC(C)Cc1ccc(C(C)C(=O)O)cc1.CC(C)Cc1ccc(C(C)C(=O)O)cc1.CC(C)OC(=O)[C@@H](N)CCCCN [[L-LysOiPr][IBU]2, L-lysine isopropyl ester bis(ibuprofenate)]	1.43
CC(C)Cc1ccc(C(C)C(=O)O)cc1.CC(C)OC(=O)[C@@H](N)Cc1ccccc1 [[L-PheOiPr][IBU], L-phenylalanine isopropyl ester ibuprofenate]	4.85
CC(C)Cc1ccc(C(C)C(=O)O)cc1.CC(C)OC(=O)[C@@H](N)CO [[L-SerOiPr][IBU], L-serine isopropyl ester ibuprofenate]	1.49
CC(C)Cc1ccc(C(C)C(=O)O)cc1.CC(C)OC(=O)[C@@H](N)[C@@H](C)O [[L-ThrOiPr][IBU], L-threonine isopropyl ester ibuprofenate]	1.52

Same assay, conditions: saturated solution in PBS pH 7.4, n = 3

SMILES	JSS, steady-state flux
CC(C)Cc1ccc(C(C)C(=O)O)cc1.CC(C)Cc1ccc(C(C)C(=O)O)cc1.CC(C)OC(=O)[C@@H](N)CCCCN [[L-LysOiPr][IBU]2, L-lysine isopropyl ester bis(ibuprofenate)]	24.852 ± 2.857 µg IBU cm^−2 h^−1
CC(C)Cc1ccc(C(C)C(=O)O)cc1.CC(C)OC(=O)[C@@H](N)Cc1ccccc1 [[L-PheOiPr][IBU], L-phenylalanine isopropyl ester ibuprofenate]	48.578 ± 4.836 µg IBU cm^−2 h^−1
CC(C)Cc1ccc(C(C)C(=O)O)cc1.CC(C)OC(=O)[C@@H](N)CO [[L-SerOiPr][IBU], L-serine isopropyl ester ibuprofenate]	66.106 µg IBU cm^−2 h^−1 and 66.106 ± 2.925 µg IBU cm^−2 h^−1
CC(C)Cc1ccc(C(C)C(=O)O)cc1.CC(C)OC(=O)[C@@H](N)[C@@H](C)O [[L-ThrOiPr][IBU], L-threonine isopropyl ester ibuprofenate]	59.631 ± 6.900 µg IBU cm^−2 h^−1

Test: Solubility (saturation concentration) in deionised water and PBS pH 7.4, HPLC
Conditions: PBS pH 7.4, 32 °C; g of active compound (IBU)

SMILES	Solubility in Phosphate Buffer pH = 7.4 [g IBU∙dm^−3]
CC(C)Cc1ccc(C(C)C(=O)O)cc1.CC(C)Cc1ccc(C(C)C(=O)O)cc1.CC(C)OC(=O)[C@@H](N)CCCCN [[L-LysOiPr][IBU]2, L-lysine isopropyl ester bis(ibuprofenate)]	2.071 ± 0.118
CC(C)Cc1ccc(C(C)C(=O)O)cc1.CC(C)OC(=O)[C@@H](N)Cc1ccccc1 [[L-PheOiPr][IBU], L-phenylalanine isopropyl ester ibuprofenate]	1.017 ± 0.001

Same assay, conditions: PBS pH 7.4, 32 °C; g of compound

SMILES	Solubility in Phosphate Buffer pH = 7.4 [g∙dm^−3]
CC(C)Cc1ccc(C(C)C(=O)O)cc1.CC(C)Cc1ccc(C(C)C(=O)O)cc1.CC(C)OC(=O)[C@@H](N)CCCCN [[L-LysOiPr][IBU]2, L-lysine isopropyl ester bis(ibuprofenate)]	6.032 ± 0.342
CC(C)Cc1ccc(C(C)C(=O)O)cc1.CC(C)OC(=O)[C@@H](N)Cc1ccccc1 [[L-PheOiPr][IBU], L-phenylalanine isopropyl ester ibuprofenate]	2.039 ± 0.001

Same assay, conditions: water, 25 °C; g of active compound (IBU)

SMILES	Solubility in Water [g IBU∙dm^−3]
CC(C)Cc1ccc(C(C)C(=O)O)cc1.CC(C)Cc1ccc(C(C)C(=O)O)cc1.CC(C)OC(=O)[C@@H](N)CCCCN [[L-LysOiPr][IBU]2, L-lysine isopropyl ester bis(ibuprofenate)]	2.012 ± 0.110
CC(C)Cc1ccc(C(C)C(=O)O)cc1.CC(C)OC(=O)[C@@H](N)Cc1ccccc1 [[L-PheOiPr][IBU], L-phenylalanine isopropyl ester ibuprofenate]	0.297 ± 0.024

Same assay, conditions: water, 25 °C; g of compound

SMILES	Solubility in Water [g∙dm^−3]
CC(C)Cc1ccc(C(C)C(=O)O)cc1.CC(C)Cc1ccc(C(C)C(=O)O)cc1.CC(C)OC(=O)[C@@H](N)CCCCN [[L-LysOiPr][IBU]2, L-lysine isopropyl ester bis(ibuprofenate)]	5.861 ± 0.322
CC(C)Cc1ccc(C(C)C(=O)O)cc1.CC(C)OC(=O)[C@@H](N)Cc1ccccc1 [[L-PheOiPr][IBU], L-phenylalanine isopropyl ester ibuprofenate]	0.595 ± 0.048
